pEC50: −log10 of the molar value. Like-named read-outs stand apart in the source and are kept apart here.
What was measured:
Format in all cases: cell-based
[1] = test system: Human Monocytic Leukemia MV4-11; test: Cell proliferation experiment (Alarm blue, 72 h, EC50); settings: Homo sapiens
Method in brief: (§1)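 Duplicate wells per concentration, 5-fold dilution series, 72 h continuous exposure of log-phase cells; read-out Alamar blue fluorescence, EC50 derived by curve fit with minimum, maximum and slope terms.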

HUVEC [2] = test: Cell proliferation experiment (EC50), HUVEC; settings: Homo sapiens
PBMC [3] = test: Cell proliferation experiment (EC50), PBMC
BRD4 = biological target: T1, BRD4 (Homo sapiens, UniProt O60885); test: Western blot, protein degradation (DC50)
T1 construct: endogenous in cells
Method in brief: (§2)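 Cells treated with compound, lysed in RIPA and resolved by SDS-PAGE (4%-12%); PVDF blots probed with primary antibody overnight at 4° C, then secondary antibody, and developed with ECL. Band intensities quantified by densitometry to give degradation.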

PLK1 = biological target: T2, PLK1 (Homo sapiens, UniProt P53350); test: Western blot, protein degradation (DC50)
T2 construct: endogenous in cells
Method in brief: as §2

[4] = test system: Human Acute Myelomonocytic Leukemia HL-60; test: Cell proliferation experiment (Alarm blue, 72 h, EC50); settings: HL-60 cells
Method in brief: as §1

[5] = test system: Human Colon Cancer HCT-116; test: as above; settings: HCT116 cells
Method in brief: as §1

HUVEC [6] = test: Cell proliferation experiment (EC50), HUVEC; settings: Homo sapiens; remark: listed apart in the source
PBMC [7] = test: Cell proliferation experiment (EC50), PBMC; remark: listed apart in the source
[8] = test system: Human Breast Cancer MDA-MB-231; test: Cell proliferation experiment (Alarm blue, 72 h, EC50); settings: MDA-MB-231 cells
Method in brief: as §1

[9] = test system: Human cervical adenocarcinoma cells Hela; test: as above
Method in brief: as §1

[10] = test system: Human Glioma Cells U-87 MG; test: as above; settings: U-87MG cells
Method in brief: as §1

[11] = test system: Human Small Cell Lung Cancer NCI-H82; test: as above; settings: Homo sapiens, NCI-H82; NCIH82 cells
Method in brief: as §1

Human Colon Cancer HT-29 = test: as above; settings: HT-29 cells
Method in brief: as §1

[12] = test system: Human Monocytic Leukemia THP-1; test: as above; settings: THP-1 cells
Method in brief: as §1

HUVEC [13] = test: Cell proliferation experiment (EC50), HUVEC; settings: Homo sapiens; remark: listed apart in the source
PBMC [14] = test: Cell proliferation experiment (EC50), PBMC; remark: listed apart in the source
HUVEC [15] = test: Cell proliferation experiment (EC50), HUVEC
[16] = test system: Human Ovarian Cancer SK-OV-3; test: Cell proliferation experiment (Alarm blue, 72 h, EC50); settings: SKO3 cells
Method in brief: as §1

PBMC [17] = test: Cell proliferation experiment (EC50), PBMC; remark: listed apart in the source
[18] = test system: Human Acute Lymphoblastic Leukemia Cells MOLT-4; test: Cell proliferation experiment (Alarm blue, 72 h, EC50); settings: MOL4-4 cells
Method in brief: as §1

U937 = test: Cell proliferation experiment (EC50), U937; settings: Homo sapiens, U-937; U937 cells
Daudi = test: Cell proliferation experiment (EC50), Daudi; settings: Homo sapiens; Daudi cells
A549 = test: Cell proliferation experiment (EC50), A549; settings: Homo sapiens; A549 cells
[19] = 6 h, read-out: PLK1 DC50 (nM) (6 h)
[20] = 6 h, western blot, read-out: BRD4 DC50 (6 h)
[21] = 6 h, western blot, read-out: PLK1 DC50 (6 h)
[22] = 24 h, western blot, read-out: BRD4 DC50 (24 h)
[23] = 24 h, western blot, read-out: PLK1 DC50 (24 h)

T2 sequence (P53350 whole entry): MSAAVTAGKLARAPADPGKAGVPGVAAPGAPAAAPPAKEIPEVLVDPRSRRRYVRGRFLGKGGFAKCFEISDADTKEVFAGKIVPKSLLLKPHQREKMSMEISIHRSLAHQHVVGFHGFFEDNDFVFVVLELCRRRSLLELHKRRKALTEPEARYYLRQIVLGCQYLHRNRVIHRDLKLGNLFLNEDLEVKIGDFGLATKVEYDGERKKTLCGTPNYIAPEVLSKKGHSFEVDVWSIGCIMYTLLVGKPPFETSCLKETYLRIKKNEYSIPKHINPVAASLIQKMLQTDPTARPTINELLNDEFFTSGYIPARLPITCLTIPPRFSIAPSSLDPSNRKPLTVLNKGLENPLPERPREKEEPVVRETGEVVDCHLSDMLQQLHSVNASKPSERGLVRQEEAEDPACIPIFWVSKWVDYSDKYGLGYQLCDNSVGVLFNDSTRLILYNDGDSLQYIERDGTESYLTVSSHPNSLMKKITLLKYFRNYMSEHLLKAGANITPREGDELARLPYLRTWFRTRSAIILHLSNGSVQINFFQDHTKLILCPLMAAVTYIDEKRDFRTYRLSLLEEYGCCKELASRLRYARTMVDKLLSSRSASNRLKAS

SMILES | pEC50 ([1]; MV4-11, MV4;11 cells) | pEC50 [4] | pEC50 ([5]; Homo sapiens, HCT-116) | pEC50 ([8]; Homo sapiens) | pEC50 ([9]; Homo sapiens) | pEC50 ([10]; Homo sapiens) | pEC50 [11] | pEC50 (Human Colon Cancer HT-29; Homo sapiens) | pEC50 [12] | pEC50 (HUVEC [13]) | pEC50 (PBMC [14]) | DC50 (BRD4; [20]) | DC50 (PLK1; [21]) | pEC50 ([1]; MV4;11 cells) | pEC50 [18] | further results
CC[C@@H]1C(=O)N(C)c2cnc(Nc3ccc(C(=O)NCc4cn(CCNCCC(=O)Nc5cccc6c5CN(C5CCC(=O)NC5=O)C6=O)nn4)cc3OC)nc2N1Cc1ccc(Cl)s1 (stereo partly drawn) [UB-180714] | 7.00 to 8.00 |  |  |  |  |  |  |  |  |  |  |  |  |  |  | pEC50 (HUVEC [2]): 6.00 to 7.00; pEC50 (PBMC [3]): 6.00 to 7.00; DC50 (BRD4; 6 h, read-out: BRD4 DC50 (nM) (6 h)): < 10 nM; DC50 (BRD4; 24 h, read-out: BRD4 DC50 (nM) (24 h)): < 10 nM; DC50 (PLK1; [19]): 10 to 100 nM; DC50 (PLK1; 24 h, read-out: PLK1 DC50 (nM) (24 h)): < 10 nM
O=C1CCC(N2Cc3c(NC(=O)CCOCCOCCOCCNC(=O)[C@]4(Cc5cccc(Nc6nccs6)n5)CC[C@@H](Oc5cccc(Cl)c5F)CC4)cccc3C2=O)C(=O)N1 (stereo partly drawn) [UB-180581] | 7.00 to 8.00 | 6.00 to 7.00 | < 6.00 |  |  |  |  |  |  |  |  |  |  |  |  | pEC50 (HUVEC [6]): < 6.00; pEC50 (PBMC [7]): < 6.00; DC50 (PLK1; 6 h, read-out: PLK1 DC50 (6 h)): < 10 nM
O=C1CCC(N2Cc3c(NC(=O)CNCCOCCOCCOCCNC(=O)[C@]4(Cc5cccc(Nc6nccs6)n5)CC[C@@H](Oc5cccc(Cl)c5F)CC4)cccc3C2=O)C(=O)N1 (stereo partly drawn) [UB-180730] | 7.00 to 8.00 | < 6.00 | 6.00 to 7.00 |  |  |  |  |  |  |  |  |  |  |  |  | pEC50 (HUVEC [2]): < 6.00; pEC50 (PBMC [3]): < 6.00; DC50 (PLK1; [19]): < 10 nM
CC[C@@H]1C(=O)N(C)c2cnc(Nc3ccc(C(=O)NCCCNCCCCCC(=O)Nc4cccc5c4CN(C4CCC(=O)NC4=O)C5=O)cc3OC)nc2N1C1CCCC1 (stereo partly drawn) [UB-180660] | 7.00 to 8.00 | 6.00 to 7.00 | 6.00 to 7.00 | 6.00 to 7.00 | 6.00 to 7.00 | 6.00 to 7.00 | < 6.00 | 6.00 to 7.00 | 6.00 to 7.00 | < 6.00 | < 6.00 | 10 to 100 nM | < 10 nM |  |  | 
CC[C@@H]1C(=O)N(C)c2cnc(Nc3ccc(C(=O)NC4CCN(CCOCCN(CC(=O)Nc5cccc6c5CN(C5CCC(=O)NC5=O)C6=O)C(=O)OC(C)C(C)SSC[C@@H](NC(=O)CCOCCOCCOCCOCCOCCOCCNC(=O)CC[C@H](NC(=O)c5ccc(NCc6cnc7nc(N)[nH]c(=O)c7n6)cc5)C(=O)O)C(=O)O)CC4)cc3OC)nc2N1C1CCCC1 (stereo partly drawn) [UB-180829] |  |  |  |  |  |  |  |  |  |  |  |  |  |  |  | pEC50 (HUVEC [15]): < 6.00; pEC50 [16]: 6.00 to 7.00; pEC50 [8]: 6.00 to 7.00; pEC50 [9]: 6.00 to 7.00; pEC50 [10]: 6.00 to 7.00; pEC50 (Human Colon Cancer HT-29): 6.00 to 7.00; pEC50 [5]: 6.00 to 7.00; pEC50 (PBMC [17]): < 6.00
CC[C@@H]1CN(C)c2cnc(Nc3ccc(C(=O)NCCOCCOCCOCCNCCC(=O)Nc4cccc5c4CN(C4CCC(=O)NC4=O)C5=O)cc3OC)nc2N1Cc1ccc(Cl)s1 (stereo partly drawn) [UB-180701] |  | 6.00 to 7.00 | 6.00 to 7.00 | 6.00 to 7.00 | 6.00 to 7.00 | 6.00 to 7.00 | 6.00 to 7.00 | 6.00 to 7.00 | 6.00 to 7.00 | < 6.00 | < 6.00 | < 10 nM | 10 to 100 nM | > 8.00 | 6.00 to 7.00 | pEC50 ([16]; Homo sapiens, SK-OV-3): 6.00 to 7.00; pEC50 (U937): 6.00 to 7.00; pEC50 (Daudi): 6.00 to 7.00; pEC50 (A549): 6.00 to 7.00; DC50 (BRD4; [22]): < 10 nM; DC50 (PLK1; [23]): < 10 nM
O=C1CCC(N2Cc3c(NC(=O)CCOCCOCCOCCNCCOCCNC(=O)[C@]4(Cc5cccc(Nc6nccs6)n5)CC[C@@H](Oc5cccc(Cl)c5F)CC4)cccc3C2=O)C(=O)N1 (stereo partly drawn) [UB-180804] | 6.00 to 7.00 | < 6.00 |  |  |  |  |  |  |  |  |  |  |  |  |  | pEC50 (HUVEC [15]; Homo sapiens): < 6.00; pEC50 (PBMC [17]): < 6.00
CC[C@@H]1C(=O)N(C)c2cnc(Nc3ccc(C(=O)NCc4cn(CCNCCC(=O)Nc5cccc6c5CN(C5CCC(=O)NC5=O)C6=O)nn4)cc3OC)nc2N1C1CCCC1 (stereo partly drawn) [UB-180680] |  | 6.00 to 7.00 |  | 6.00 to 7.00 |  | 6.00 to 7.00 | 6.00 to 7.00 | 6.00 to 7.00 |  | < 6.00 | < 6.00 | < 10 nM | < 10 nM | 7.00 to 8.00 | 6.00 to 7.00 | pEC50 (Daudi): 6.00 to 7.00; DC50 (BRD4; [22]): < 10 nM; DC50 (PLK1; [23]): 10 to 100 nM
CC[C@@H]1C(=O)N(C)c2cnc(Nc3ccc(C(=O)NCCOCCOCCOCCNCCC(=O)Nc4cccc5c4CN(C4CCC(=O)NC4=O)C5=O)cc3OC)nc2N1C1CCCC1 (stereo partly drawn) [UB-180633] |  | 6.00 to 7.00 | < 6.00 | 6.00 to 7.00 | 6.00 to 7.00 | 6.00 to 7.00 | < 6.00 | 6.00 to 7.00 | 6.00 to 7.00 |  |  |  |  | 7.00 to 8.00 |  | pEC50 (HUVEC [6]): < 6.00; pEC50 (PBMC [7]): < 6.00; DC50 (BRD4; 6 h, read-out: BRD4 DC50 (6 h)): < 10 nM; DC50 (BRD4; 24 h, read-out: BRD4 DC50 (24 h)): < 10 nM; DC50 (PLK1; 6 h, read-out: PLK1 DC50 (6 h)): 100 to 1000 nM; DC50 (PLK1; 24 h, read-out: PLK1 DC50 (24 h)): 10 to 100 nM
O=C1CCC(N2Cc3c(NC(=O)CNCCOCCN4CCN(CCNC(=O)[C@]5(Cc6cccc(Nc7nccs7)n6)CC[C@@H](Oc6cccc(Cl)c6F)CC5)CC4)cccc3C2=O)C(=O)N1 (stereo partly drawn) [UB-180810] | 6.00 to 7.00 |  | 6.00 to 7.00 |  |  |  |  |  |  |  |  |  |  |  |  | pEC50 (HUVEC [15]; Homo sapiens): < 6.00; pEC50 (PBMC [17]): < 6.00; DC50 (PLK1; 6 h, read-out: PLK1 DC50 (6 h)): < 10 nM
CC[C@@H]1C(=O)N(C)c2cnc(Nc3ccc(C(=O)NC4CCN(CCNCCOCC(=O)Nc5cccc6c5CN(C5CCC(=O)NC5=O)C6=O)CC4)cc3OC)nc2N1Cc1ccc(Cl)s1 (stereo partly drawn) [UB-180711] |  | 6.00 to 7.00 | 6.00 to 7.00 | 6.00 to 7.00 | 6.00 to 7.00 | 6.00 to 7.00 | 6.00 to 7.00 | 6.00 to 7.00 | 6.00 to 7.00 | 6.00 to 7.00 | 6.00 to 7.00 | < 10 nM | 10 to 100 nM | > 8.00 | 6.00 to 7.00 | pEC50 ([16]; Homo sapiens, SK-OV-3): 6.00 to 7.00; pEC50 (U937): 6.00 to 7.00; pEC50 (Daudi): 6.00 to 7.00; pEC50 (A549): 6.00 to 7.00; DC50 (BRD4; [22]): < 10 nM; DC50 (PLK1; [23]): < 10 nM
CC[C@@H]1C(=O)N(C)C2CNC(Nc3ccc(C(=O)NCCCNCCCC(=O)Nc4cccc5c4CN(C4CCC(=O)NC4=O)C5=O)cc3OC)NC2N1Cc1ccc(Cl)s1 (stereo partly drawn) [UB-180678] |  | 6.00 to 7.00 |  | 6.00 to 7.00 |  | 6.00 to 7.00 | 6.00 to 7.00 | 6.00 to 7.00 |  | 6.00 to 7.00 | 6.00 to 7.00 | < 10 nM | 100 to 1000 nM | 7.00 to 8.00 | 6.00 to 7.00 | 
